Results taken from US20240376094A2, “SELECTIVE BCL-XL PROTAC COMPOUNDS AND METHODS OF USE” (Les Laboratoires Servier, priority 2021, published 2024).

How the values were obtained:
Format in all cases: cell-based
Bcl-xL = target: T1, Bcl-xL (Homo sapiens, UniProt Q07817); experiment: HCT116 Bcl-xL degradation, capillary-based immunoassay (WES); details: for DC50: HCT116, 24 h, 9-point serial dilution; for remaining activity at 0.01 µM / remaining activity at 0.1 µM: HCT-116, 24 h, % of untreated cells; for remaining activity at 0.01 µM: HCT116, 10 nM; for remaining activity at 0.1 µM: HCT116, 100 nM
T1 construct: Measured levels of Bcl-xL protein of HCT116 cells treated with the tested compounds; host or cells: HCT116
T1 sequence (Q07817 whole entry): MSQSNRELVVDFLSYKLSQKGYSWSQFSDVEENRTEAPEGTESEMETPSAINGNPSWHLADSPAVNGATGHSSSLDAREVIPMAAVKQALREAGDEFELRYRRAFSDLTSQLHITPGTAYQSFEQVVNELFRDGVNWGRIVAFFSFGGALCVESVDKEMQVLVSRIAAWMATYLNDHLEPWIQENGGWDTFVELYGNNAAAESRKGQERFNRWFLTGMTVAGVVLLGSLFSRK
Procedure, shortened: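 Bcl-xL protein level by capillary WES immunoassay in HCT116 lysates, as % of untreated after cofilin normalization. Compound exposure was 24 h at 10 and 100 nM and/or a 9-point series, in quadruplicate. Four-parameter fitting gave the DC50.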

[1] = tested on: EBC-1 lung cancer cell line; experiment: EBC-1 cell proliferation, CellTiter-Glo assay; details: Homo sapiens, 120 h; Ebc-1 cell viability, CTG assay, 5 days of treatment; read-out: CTG 5 day Ebc1 GI50
Procedure, shortened: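 CellTiter-Glo read-out after 5-day compound treatment, normalised to untreated cells, with GI50 derived by four-parameter logistic regression. Ten concentrations spanning 0.508 nM–10 μM were added to 1000 EBC-1 cells per well the day after seeding. Assays required at least one cell doubling versus Day 0.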

HiBiT-tagged BCL-xL = target: T2, HiBiT-tagged BCL-xL (Homo sapiens, UniProt Q07817); experiment: NCI-H1650 BCL-xL protein levels, Nano-Glo HiBiT Lytic Detection; details: NCI-H1650 expressing HiBiT-tagged BCL-xL, overnight incubation, read-out: Bcl-xl HIBIT NCIH1650 DC50
T2 construct: expressed in transfected cells; host or cells: NCI-H1650 (ATCC No. CRL-5883), engineered HiBiT cell line
T2 sequence (Q07817 whole entry): as above
Procedure, shortened: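 HiBiT luminescence after cell lysis with LgBiT/furimazine reagent reported BCL-xL levels, expressed relative to untreated wells and fitted with a four-parameter logistic equation. Engineered NCI-H1650 cells were exposed overnight at 37° C to compound at final 0.508 nM-10 μM (10 points, triplicate plates).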

| DC50 (Bcl-xL) | remaining activity at 0.01 µM (Bcl-xL) | remaining activity at 0.1 µM (Bcl-xL) | GI50 [1] | DC50 (HiBiT-tagged BCL-xL) | Compound |
| --- | --- | --- | --- | --- | --- |
| 0.329 nM | 21% | 9% | 5 nM | 1 nM | Cc1ncsc1-c1ccc([C@H](C)NC(=O)[C@@H]2C[C@@H](O)CN2C(=O)[C@@H](NC(=O)CCCCCCCCCCCCCCCN(C)CCOC23CC4(C)CC(C)(CC(Cn5ncc(-c6ccc(N7CCCc8c7nnc(Nc7nc9ccccc9s7)c8C)nc6C(=O)O)c5C)(C4)C2)C3)C(C)(C)C)cc1 [Example 1, 6-[3-(1,3-benzothiazol-2-ylamino)-4-methyl-6,7-dihydro-5H-pyrido[2,3-c]pyridazin-8-yl]-3-[1-[[3-[2-[[16-[[(1S)-1-[(2S,4R)-4-hydroxy-2-[[(1S)-1-[4-(4-methylthiazol-5-yl)phenyl]ethyl]carbamoyl]pyrrolidine-1-carbonyl]-2,2-dimethyl-propyl]amino]-16-oxo-hexadecyl]-methyl-amino]ethoxy]-5,7-dimethyl-1-adamantyl]methyl]-5-methyl-pyrazol-4-yl]pyridine-2-carboxylic acid] |
| 2.45 nM | 54% | 19% | 23 nM | 2 nM | Cc1ncsc1-c1ccc([C@H](C)NC(=O)[C@@H]2C[C@@H](O)CN2C(=O)[C@@H](NC(=O)CCCCCCCCN(C)CCOC23CC4(C)CC(C)(CC(Cn5ncc(-c6ccc(N7CCCc8c7nnc(Nc7nc9ccccc9s7)c8C)nc6C(=O)O)c5C)(C4)C2)C3)C(C)(C)C)cc1 [Example 5, 6-[3-(1,3-benzothiazol-2-ylamino)-4-methyl-6,7-dihydro-5H-pyrido[2,3-c]pyridazin-8-yl]-3-[1-[[3-[2-[[9-[[(1S)-1-[(2S,4R)-4-hydroxy-2-[[(1S)-1-[4-(4-methylthiazol-5-yl)phenyl]ethyl]carbamoyl]pyrrolidine-1-carbonyl]-2,2-dimethyl-propyl]amino]-9-oxo-nonyl]-methyl-amino]ethoxy]-5,7-dimethyl-1-adamantyl]methyl]-5-methyl-pyrazol-4-yl]pyridine-2-carboxylic acid] |
| 2.94 nM | 69% | 22% | 13 nM | 3 nM | Cc1ncsc1-c1ccc([C@H](C)NC(=O)[C@@H]2C[C@@H](O)CN2C(=O)[C@@H](NC(=O)CCCCCCCN(C)CCOC23CC4(C)CC(C)(CC(Cn5ncc(-c6ccc(N7CCCc8c7nnc(Nc7nc9ccccc9s7)c8C)nc6C(=O)O)c5C)(C4)C2)C3)C(C)(C)C)cc1 [Example 6, 6-[3-(1,3-benzothiazol-2-ylamino)-4-methyl-6,7-dihydro-5H-pyrido[2,3-c]pyridazin-8-yl]-3-[1-[[3-[2-[[8-[[(1S)-1-[(2S,4R)-4-hydroxy-2-[[(1S)-1-[4-(4-methylthiazol-5-yl)phenyl]ethyl]carbamoyl]pyrrolidine-1-carbonyl]-2,2-dimethyl-propyl]amino]-8-oxo-octyl]-methyl-amino]ethoxy]-5,7-dimethyl-1-adamantyl]methyl]-5-methyl-pyrazol-4-yl]pyridine-2-carboxylic acid] |
